11 compounds from patent US11866518B2, “Bicyclic peptide ligands specific for TSLP” (BicycleTx Limited, priority 2020, dated 2024) can be followed below.

*1 amine or outer side, *2 acyl side, *3 side chain or, on linkers, in order; H or OH if unused. Where a SMILES comes first, the peptide text is derived from it. Bridges are numbered along the chain shown (N, C = ends). TATA = O=C(CC[*:1])N1CN(C(=O)CC[*:2])CN(C(=O)CC[*:3])C1

T1 sequence (Q969D9 29-159): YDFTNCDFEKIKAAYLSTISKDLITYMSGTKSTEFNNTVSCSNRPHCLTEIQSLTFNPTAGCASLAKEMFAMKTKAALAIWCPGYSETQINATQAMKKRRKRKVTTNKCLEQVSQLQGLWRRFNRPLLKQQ

The first experiment has as its target T1, TSLP (Homo sapiens, UniProt Q969D9). In words: Human peripheral blood mononuclear cell assay (TSLP-induced CCL17/TARC). The arrangement: host or cells: added to human PBMCs from healthy donors. The settings on record: human PBMCs; 10 μM peptide; 50 pM TSLP; 24 hours; read-out: CCL17 % Inhibition @ 10 μM, 50 pM TSLP. Format: cell-based. How it is done: Human peripheral blood mononuclear cells (PMBCs) were obtained from heparinized whole blood (healthy donors) by density gradient centrifugation using Lymphoprep (StemCell Technologies, Vancouver, BC) according to the manufacturers instructions. The PBMCs were washed twice with PBS containing 2 mM EDTA and 2% fetal calf serum (FCS) and reconstituted in RPMI containing 10% FCS and 2% PenStrep at a final concentration of 3 million cells/mL. This cell suspension (100 μL) was aliquoted into the wells of a 96-well flat bottom tissue culture plate. 5 μL of bicycle peptide or vehicle (0.1% DMSO in complete medium) was then added and mixed with 5 μL of TSLPvehicle (complete medium). […] The plate was incubated for 30 minutes are rt. 10 μL of this mixture was added to cells and the plate was incubated for 24 hours in a 10% CO2, humidified incubator at 37° C. The plate was centrifuged at 300×g for 5 min and the collected supernatants frozen at −20° C. for subsequent CCL17/TARC analysis.
CCL17/TARC was determined by MSD (MesoScale Discovery, Maryland, USA) according to the manufacturer's instructions.
Take `CC(=O)N[C@H]1CSCCC(=O)N2CN3CN(C2)C(=O)CCSC[C@H](NC(=O)[C@H](CC(=O)O)NC(=O)[C@H](CCC(=O)O)NC(=O)[C@H](CC(C)C)NC(=O)[C@H](Cc2c[nH]c4ccccc24)NC(=O)[C@H](CCC(N)=O)NC1=O)C(=O)N[C@@H](Cc1c[nH]c2ccccc12)C(=O)N[C@@H](CCCNC(=N)N)C(=O)NCC(=O)N[C@@H](Cc1ccc(F)cc1)C(=O)N[C@H](C(N)=O)CSCCC3=O` [Example 17, Ac-(SEQ ID NO: 15)]: the inhibition (commonly how much of the control response was suppressed) at 10 µM came to 1%. Still for that read-out and setting: with `CC(=O)N[C@H]1CSCCC(=O)N2CN3CN(C2)C(=O)CCSC[C@H](NC(=O)[C@H](CC(=O)O)NC(=O)[C@H](CCC(=O)O)NC(=O)[C@H](CC(C)C)NC(=O)[C@H](Cc2c[nH]c4ccccc24)NC(=O)[C@H](CCC(N)=O)NC1=O)C(=O)N[C@@H](Cc1c[nH]c2ccccc12)C(=O)N[C@@H](CCCNC(=N)N)C(=O)NCC(=O)N[C@@H](Cc1ccc(F)c(F)c1)C(=O)N[C@H](C(N)=O)CSCCC3=O` [Example 22, Ac-(SEQ ID NO: 20)] the figure was 41%.

The same experiment, now with this note: read-out: CCL17 % Inhibition @ 10 μM, […] TSLP.
Turning to `CC(=O)N[C@H]1CSCCC(=O)N2CN3CN(C2)C(=O)CCSC[C@H](NC(=O)[C@H](CC(=O)O)NC(=O)[C@H](CCC(=O)O)NC(=O)[C@H](CC(C)C)NC(=O)[C@H](Cc2c[nH]c4ccccc24)NC(=O)[C@H](CCC(N)=O)NC1=O)C(=O)N[C@@H](Cc1c[nH]c2ccccc12)C(=O)N[C@@H](CCCNC(=N)N)C(=O)NCC(=O)N[C@@H](Cc1ccc(Cl)cc1)C(=O)N[C@H](C(N)=O)CSCCC3=O` [Example 14, Ac-(SEQ ID NO: 12)], the inhibition at 10 µM turned out to be 14%.

With `CC(=O)N[C@H]1CSCCC(=O)N2CN3CN(C2)C(=O)CCSC[C@H](NC(=O)[C@H](CC(=O)O)NC(=O)[C@H](CCC(=O)O)NC(=O)[C@H](CC(C)C)NC(=O)[C@H](Cc2c[nH]c4ccccc24)NC(=O)[C@H](CCC(N)=O)NC1=O)C(=O)N[C@@H](Cc1c[nH]c2ccccc12)C(=O)N[C@@H](CCCNC(=N)N)C(=O)NCC(=O)N[C@@H](Cc1cccc(Cl)c1)C(=O)N[C@H](C(N)=O)CSCCC3=O` [Example 32, Ac-(SEQ ID NO: 29)], the inhibition at 10 µM amounted to 14%.

The target of the next experiment is T1, TSLP. In words: Human TSLP Surface Plasmon Resonance (SPR) binding assay. The arrangement: The resulting construct spCD33-6×HN-TEV-hTSLP(29-159)-Avi; 6xHN tag with TEV site (N, cleaved yes); made in house; host or cells: Expi293F cells. As to conditions: biotinylated human TSLP immobilized on streptavidin chip; 20° C.; steady-state or kinetic 1:1 fit; read-out: hTSLP SPR Kd.
With `CC(C)C[C@@H]1NC(=O)[C@H](Cc2c[nH]c3ccccc23)NC(=O)[C@@H]2CSCCC(=O)N3CN(CN(C3)C(=O)CCSC[C@H](N)C(=O)N[C@@H](CC(=O)O)C(=O)N[C@@H](Cc3c[nH]c4ccccc34)C(=O)N[C@@H](Cc3c[nH]cn3)C(=O)N[C@@H](Cc3c[nH]c4ccccc34)C(=O)N[C@@H](CCC(=O)O)C(=O)N[C@@H](Cc3ccc(O)cc3)C(=O)N[C@@H](CC(=O)O)C(=O)N2)C(=O)CCSC[C@@H](C(=O)N[C@@H](C)C(=O)N[C@@H](CC(N)=O)C(=O)N[C@@H](CO)C(=O)N[C@@H](CCC(=O)O)C(=O)N[C@@H](Cc2ccccc2)C(=O)N[C@@H](CCC(=O)O)C(N)=O)NC(=O)[C@H](CO)NC1=O` [Example 227, (SEQ ID NO: 144)-ANSEFE], the Kd (in general, a measure of binding affinity in units of concentration) is 740 nM. The same measure, in the same setting: with `CC(C)C[C@@H]1NC(=O)[C@H](Cc2c[nH]c3ccccc23)NC(=O)[C@@H]2CSCCC(=O)N3CN(CN(C3)C(=O)CCSC[C@H](N)C(=O)N[C@@H](CC(=O)O)C(=O)N[C@@H](Cc3c[nH]c4ccccc34)C(=O)N[C@@H](Cc3c[nH]cn3)C(=O)N[C@@H](Cc3c[nH]c4ccccc34)C(=O)N[C@@H](CCC(=O)O)C(=O)N[C@@H](Cc3ccc(O)cc3)C(=O)N[C@@H](CC(=O)O)C(=O)N2)C(=O)CCSC[C@@H](C(=O)NCC(=O)N[C@@H](C)C(=O)NCC(=O)N[C@@H](CCC(=O)O)C(=O)N[C@@H](CO)C(=O)N[C@@H](CO)C(N)=O)NC(=O)[C@H](CO)NC1=O` [Example 228, (SEQ ID NO: 144)-GAGESS] the figure was 2300 nM. Still for that read-out and setting: with `CC(C)C[C@@H]1NC(=O)[C@H](CO)NC(=O)[C@@H](NC(=O)[C@H](C)N)CSCCC(=O)N2CN3CN(C2)C(=O)CCSC[C@@H](C(=O)N[C@@H](C)C(N)=O)NC(=O)[C@H]([C@@H](C)O)NC(=O)[C@H](Cc2c[nH]c4ccccc24)NC(=O)[C@H](Cc2c[nH]c4ccccc24)NC(=O)[C@H](CC(N)=O)NC(=O)[C@H](Cc2c[nH]cn2)NC(=O)[C@H](CSCCC3=O)NC(=O)[C@H](CO)NC(=O)[C@H](Cc2c[nH]c3ccccc23)NC(=O)[C@@H]2CCCN2C(=O)[C@H](CC(=O)O)NC1=O` [Example 229, A-(SEQ ID NO: 156)-A] (H-ACSLDPWSCHNWWTCA-NH2; linker 2-9-15 via TATA; N-terminus and C-terminus assumed) the figure was 9900 nM; with `CC(C)C[C@@H]1NC(=O)[C@H](C)NC(=O)[C@@H](NC(=O)[C@H](C)N)CSCCC(=O)N2CN3CN(C2)C(=O)CCSC[C@H](NC(=O)[C@H](C(C)C)NC(=O)[C@H](Cc2c[nH]c4ccccc24)NC(=O)[C@@H]2CCCN2C(=O)[C@H](CC(=O)O)NC1=O)C(=O)N1CCC[C@H]1C(=O)N[C@@H](CCC(N)=O)C(=O)N[C@@H](Cc1c[nH]c2ccccc12)C(=O)N[C@@H](Cc1c[nH]c2ccccc12)C(=O)N[C@@H](CC(=O)O)C(=O)N[C@H](C(=O)N[C@@H](C)C(N)=O)CSCCC3=O` [Example 230, A-(SEQ ID NO: 157)-A] (H-ACALDPWVCPQWWDCA-NH2; linker 2-9-15 via TATA; N-terminus and C-terminus assumed), 960 nM. Regarding `CC(C)C[C@@H]1NC(=O)[C@@H]2CSCCC(=O)N3CN(CN(C3)C(=O)CCSC[C@@H](C(=O)N[C@@H](C)C(N)=O)NC(=O)[C@H](CCC(=O)O)NC(=O)[C@@H]3CCCN3C(=O)[C@H](CCC(N)=O)NC(=O)[C@H](Cc3ccc(O)cc3)NC(=O)[C@H](CC(C)C)NC1=O)C(=O)CCSC[C@H](NC(=O)[C@H](C)N)C(=O)N[C@@H](CCC(N)=O)C(=O)N[C@@H](CCC(=O)O)C(=O)N[C@@H](Cc1c[nH]cn1)C(=O)N[C@@H](CC(=O)O)C(=O)N[C@@H](Cc1c[nH]c3ccccc13)C(=O)N[C@@H](Cc1ccc(O)cc1)C(=O)N2` [Example 231, A-(SEQ ID NO: 158)-A] (H-ACQEHDWYCLLYQPECA-NH2; linker 2-9-16 via TATA; N-terminus and C-terminus assumed), the dissociation constant Kd came out at 1800 nM. Same read-out and setting: for `CC[C@H](C)[C@@H]1NC(=O)[C@H](Cc2c[nH]c3ccccc23)NC(=O)[C@@H]2CSCCC(=O)N3CN(CN(C3)C(=O)CCSC[C@@H](C(=O)N[C@@H](C)C(N)=O)NC(=O)[C@H](CC(C)C)NC(=O)[C@H]([C@@H](C)O)NC(=O)[C@H](CCCCN)NC(=O)[C@H](Cc3ccccc3)NC1=O)C(=O)CCSC[C@H](NC(=O)[C@H](C)N)C(=O)N[C@@H](CC(=O)O)C(=O)N[C@@H](CCC(=O)O)C(=O)N[C@@H](CC(C)C)C(=O)N[C@@H](CC(=O)O)C(=O)N[C@@H]([C@@H](C)CC)C(=O)N1CCC[C@H]1C(=O)N2` [Example 232, A-(SEQ ID NO: 159)-A] (H-ACDELDIPCWIFKTLCA-NH2; linker 2-9-16 via TATA; N-terminus and C-terminus assumed) the value was 8300 nM; for `CC(=O)N[C@H]1CSCCC(=O)N2CN3CN(C2)C(=O)CCSC[C@@H]2NC(=O)[C@H](CC(=O)O)NC(=O)[C@H](CCC(=O)O)NC(=O)[C@H](CC(C)C)NC(=O)[C@H](CCn4cc(nn4)CC[C@H](NC(=O)[C@H](Cc4c[nH]c5ccccc45)NC2=O)C(=O)NCC(=O)N[C@@H](Cc2ccc(F)cc2)C(=O)N[C@H](C(N)=O)CSCCC3=O)NC(=O)[C@H](CCC(N)=O)NC1=O` [Example 249], 1200 nM.
